# pIC50, pKd: −log10 of the molar value.
# Columns and labels:
# S. Aureus = test: Minimum inhibitory concentration (MIC), S. aureus; assay type: cell-based; settings: range of concentration, 20-24 hours at 37° C., A595; for MIC: Staphylococcus aureus
# Procedure: (§1) The assays are carried out in 150 μL volume in duplicate in 96-well clear flat-bottom plates. The bacterial suspension from an overnight culture growth in appropriate medium is added to a solution of test compound in 2.5% DMSO in water. Final bacterial inoculum is approximately 10^2-10^3 CFU/well. The percentage growth of the bacteria in test wells relative to that observed for a control wells containing no compound is determined by measuring absorbance at 595 nm (A595) after 20-24 hours at 37° C. The MIC is determined as a range of concentration where complete inhibition of growth is observed at the higher concentration and bacterial cells are viable at the lower concentration. Both ampicillin and tetracycline are used as antibiotic positive controls in each screening assay.
# E. Coli. = test: Minimum inhibitory concentration (MIC), E. coli; assay type: cell-based; settings: range of concentration, 20-24 hours at 37° C., A595; for MIC: Escherichia coli
# Procedure: as §1
# 18S = 18S Kd by FTICR mass spectrometry; assay type: binding
# Procedure: (§2) Was performed according to the published report; […]-Lowery, […].; Mohan, […]. et al. Characterization of Low Affinity Complexes Between RNA and Small Molecules Using Electrospray Ionization Mass Spectrometry. J. Am. Chem. […] Screening is performed by measuring the formation of non-covalent complexes between a single ligand or ligand mixture and the appropriate RNA target, along with suitable control structured RNA target(s) simultaneously using a 9.4 T FT-ICR mass spectrometer as detector. Full experimental details of the assay have been described in related literature ([…]-Lowery, et al. in TrAC, Trends Anal. […] The abundances were integrated from the respective ions for free RNA and the ligand-RNA complex. […] The peak ratios are measured at each concentration, then a plot of complex/free RNA versus concentration of ligand added is fitted to a second (or higher) order binding polynomial to determine the KD.
# [1] = system: E. coli S30 bacterial extract (pBest Luc luciferase transcription/translation); test: Coupled bacterial transcription/translation assay (T/T); assay type: biochemical; settings: luciferase reporter, 35 minutes at 37° C., read-out: Trans/Trans IC50
# Procedure: The DNA template, pBest Luc™ (Promega), is a plasmid containing a reporter gene for firefly luciferase fused to a strong tac promoter and ribosome binding site. Messenger RNA from 1 μg pBestLuc was transcribed and translated in E. coli S30 bacterial extract in the presence or absence of test compound. Compounds were tested in a black 96 well microtiter plate with an assay volume of […]. Each test well contained: 5 μL test compound, 13 μL S30 premix (Promega), 4 μL 10× complete amino acid mix (1 mM each), 5 μL E. coli S30 extract and 8 μL of 0.125 μg/μL pBest Luc™. The transcription/translation reaction was incubated for 35 minutes at 37° C. followed by detection of functional luciferase with the addition of 30 μL LucLite™ (Packard). Light output was quantitated on a Packard TopCount.
# 16S = test: Measurement of 16S Kd by FTICR mass spectrometry; assay type: binding
# Procedure: as §2
compound,measurement,setting,value
CN(CCc1ccccc1)C[C@H]1O[C@H](O[C@H]2[C@H](O[C@@H]3O[C@H](CO)[C@@H](O[C@H]4O[C@@H](CN)[C@@H](O)[C@H](O)[C@H]4N)[C@H]3O)[C@@H](O)[C@H](N)C[C@@H]2N)[C@H](N)[C@@H](O)[C@@H]1O [IBIS00561931],MIC S. Aureus,S. Aureus,0.31 to 0.62 µM
same,MIC E. Coli.,E. Coli.,2.5 to 5.0 µM
NC[C@@H]1O[C@H](O[C@H]2[C@@H](O)[C@H](O[C@@H]3[C@@H](O)[C@H](N)C[C@H](N)[C@H]3O[C@H]3O[C@H](CNCCc4cccc(C(F)(F)F)c4)[C@@H](O)[C@H](O)[C@H]3N)O[C@@H]2CO)[C@H](N)[C@@H](O)[C@@H]1O [IBIS00561943],MIC,S. Aureus,0.16 to 0.31 µM
same,MIC,E. Coli.,0.6 to 1.2 µM
NC[C@@H]1O[C@H](O[C@H]2[C@@H](O)[C@H](O[C@@H]3[C@@H](O)[C@H](N)C[C@H](N)[C@H]3O[C@H]3O[C@H](CNN)[C@@H](O)[C@H](O)[C@H]3N)O[C@@H]2CO)[C@H](N)[C@@H](O)[C@@H]1O [IBIS00560187],pKd,18S,5.78
same,pIC50,[1],6.63
same,MIC S. Aureus,S. Aureus,3 to 6 µM
same,MIC E. Coli.,E. Coli.,12 to 25 µM
same,pKd,16S,6.25
COc1cccc(CCNC[C@H]2O[C@H](O[C@H]3[C@H](O[C@@H]4O[C@H](CO)[C@@H](O[C@H]5O[C@@H](CN)[C@@H](O)[C@H](O)[C@H]5N)[C@H]4O)[C@@H](O)[C@H](N)C[C@@H]3N)[C@H](N)[C@@H](O)[C@@H]2O)c1 [IBIS00561934],MIC S. Aureus,S. Aureus,0.31 to 0.62 µM
same,MIC E. Coli.,E. Coli.,1.25 to 2.5 µM
CC(C)NC[C@H]1O[C@H](O[C@H]2[C@H](O[C@@H]3O[C@H](CO)[C@@H](O[C@H]4O[C@@H](CN)[C@@H](O)[C@H](O)[C@H]4N)[C@H]3O)[C@@H](O)[C@H](N)C[C@@H]2N)[C@H](N)[C@@H](O)[C@@H]1O [IBIS00561095],pKd,18S,5.92
same,pIC50,[1],6.69
same,MIC S. Aureus,S. Aureus,1.25 to 2.5 µM
same,MIC E. Coli.,E. Coli.,2.5 to 5.0 µM
same,pKd,16S,5.93
COc1ccccc1CCNC[C@H]1O[C@H](O[C@H]2[C@H](O[C@@H]3O[C@H](CO)[C@@H](O[C@H]4O[C@@H](CN)[C@@H](O)[C@H](O)[C@H]4N)[C@H]3O)[C@@H](O)[C@H](N)C[C@@H]2N)[C@H](N)[C@@H](O)[C@@H]1O [IBIS00561935],MIC S. Aureus,S. Aureus,0.31 to 0.62 µM
same,MIC E. Coli.,E. Coli.,1.25 to 2.5 µM
NCCCNC[C@H]1O[C@H](O[C@H]2[C@H](O[C@@H]3O[C@H](CO)[C@@H](O[C@H]4O[C@@H](CN)[C@@H](O)[C@H](O)[C@H]4N)[C@H]3O)[C@@H](O)[C@H](N)C[C@@H]2N)[C@H](N)[C@@H](O)[C@@H]1O [IBIS00561096],pKd,18S,5.84
same,pIC50,[1],6.76
same,MIC S. Aureus,S. Aureus,1.25 to 2.5 µM
same,MIC E. Coli.,E. Coli.,2.5 to 5.0 µM
same,pKd,16S,5.80
COc1ccc(CCNC[C@H]2O[C@H](O[C@H]3[C@H](O[C@@H]4O[C@H](CO)[C@@H](O[C@H]5O[C@@H](CN)[C@@H](O)[C@H](O)[C@H]5N)[C@H]4O)[C@@H](O)[C@H](N)C[C@@H]3N)[C@H](N)[C@@H](O)[C@@H]2O)cc1 [IBIS00561933],MIC,S. Aureus,0.31 to 0.62 µM
same,MIC,E. Coli.,1.25 to 2.5 µM
Cc1ccc(CCNC[C@H]2O[C@H](O[C@H]3[C@H](O[C@@H]4O[C@H](CO)[C@@H](O[C@H]5O[C@@H](CN)[C@@H](O)[C@H](O)[C@H]5N)[C@H]4O)[C@@H](O)[C@H](N)C[C@@H]3N)[C@H](N)[C@@H](O)[C@@H]2O)cc1 [IBIS00561930],MIC S. Aureus,S. Aureus,0.6 to 1.2 µM
same,MIC E. Coli.,E. Coli.,2.5 to 5.0 µM
NCC1OC(OC2C(CO)OC(OC3C(O)C(N)CC(N)C3OC3OC(CNCCc4c[nH]c5ccccc45)C(O)C(O)C3N)C2O)C(N)C(O)C1O (centres unmarked) [IBIS00561940],MIC S. Aureus,S. Aureus,1.25 to 2.5 µM
same,MIC E. Coli.,E. Coli.,1.25 to 2.5 µM

# From patent publication US20080214845A1, “ANTIBACTERIAL 6'-MODIFIED 4,5-SUBSTITUTED AMINOGLYCOSIDE ANALOGS” (priority 2005, published 2008)
